Test results taken from patent publication US7312333B2, “Retroviral protease inhibitors” (Pharmacia Corporation, priority 1992, dated 2007).
Read-outs that look alike come from different tables or passages of the source.

Legend:
HIV protease = molecular target: T1, HIV protease (Human immunodeficiency virus type 1 group M subtype B, UniProt P04585); test: HIV protease enzyme assay (fluorogenic substrate 2-aminobenzoyl-Ile-Nle-Phe(p-NO2)-Gln-ArgNH2); type: biochemical; settings: for inhibition at 10 µM: at a concentration of 10 micromolar
T1 construct: HIV protease is diluted in the assay buffer to a final enzyme concentration of 12.3 nanomolar, based on a molecular weight of 10,780
Method: The compounds of the present invention are effective HIV protease inhibitors. […] The calculated IC50 (inhibiting concentration 50%, i.e., the concentration at which the inhibitor compound reduces enzyme activity by 50%) values are shown in Table 1. The enzyme method is described below. The substrate is 2-aminobenzoyl-Ile-Nle-Phe(p-NO2)-Gln-ArgNH2. The positive control is MVT-101 (Miller, M. et al, Science, 246, 1149 (1989)] The assay conditions are as follows:
Assay buffer: 20 mM sodium phosphate, pH 6.4
The above described substrate is dissolved in DMSO, then diluted 10 fold in assay buffer. Final substrate concentration in the assay is 80 μM.
HIV protease is diluted in the assay buffer to a final enzyme concentration of 12.3 nanomolar, based on a molecular weight of 10,780.
The final concentration of DMSO is 14% and the final concentration of glycerol is 18%. The test compound is dissolved in DMSO and diluted in DMSO to 10× the test concentration; 10 μL of the enzyme preparation is added, the materials mixed and then the mixture is incubated at ambient temperature for 15 minutes. The enzyme reaction is initiated by the addition of 40 μL of substrate. The increase in fluorescence is monitored at 4 time points (0, 8, 16 and 24 minutes) at ambient temperature. Each assay is carried out in duplicate wells.

[1] = CEM cell assay: intrinsic toxicity of test compound in uninfected cells (MTT); type: cell-based; settings: human, uninfected CEM cells (CD4+ cell line); CEM cells without virus, 7 days, concentration reducing cellular viability by 50% (TD50)
Method: (§1) The effectiveness of the compounds tested in Part A was also determined in a CEM cell assay. The HIV inhibition assay method of acutely infected cells is an automated tetrazolium based colorimetric assay essentially that reported by Pauwles et al, J. Virol. Methods 20, 309-321 (1988). Assays were performed in 96-well tissue culture plates. CEM cells, a CD4^+ cell line, were grown in RPMI-1640 medium (Gibco) supplemented with a 10% fetal-calf serum and were then treated with polybrene (2 μg/mL). An 80 μL volume of medium containing 1×10^4 cells was dispensed into each well of the tissue culture plate. To each well was added a 100 μL volume of test compound dissolved in tissue culture medium (or medium without test compound as a control) to achieve the desired final concentration and the cells were incubated at 37° C. For 1 hour. A frozen culture of HIV-1 was diluted in culture medium to a concentration of 5×10^4 TCID50 per mL (TCID50=the dose of virus that infects 50% of cells in tissue culture), and a 20 μL volume of the virus sample (containing 1000 TCID50 of virus) was added to wells containing test compound and to wells containing only medium (infected control cells). Several wells received culture medium without virus (uninfected control cells). Likewise, the intrinsic toxicity of the test compound was determined by adding medium without virus to several wells containing test compound. In summary, the tissue culture plates contained the following experiments:
(§2) In experiments 2 and 4, the final concentrations of test compounds were 1, 10, 100 and 500 μg/mL. Either azidothymidine (AZT) or dideoxyinosine (ddI) was included as a positive drug control. […] DMSO was added to all control wells at an appropriate concentration.
(§3) Following the addition of virus, cells were incubated at 37° C. in a humidified, 5% CO2 atmosphere for 7 days. Test compounds could be added on days 0, 2 and 5 if desired. On day 7, post-infection, the cells in each well were resuspended and a 100 μL sample of each cell suspension was removed for assay. A 20 μL volume of a 5 mg/mL solution of 3-(4,5-dimethylthiazol-2-yl)-2,5-diphenyltetrazolium bromide (MTT) was added to each 100 μL cell suspension, and the cells were incubated for 4 hours at […] in a 5% CO2 environment. […] To each sample was added 100 μL of 10% sodium dodecylsulfate in 0.01 N HCl to lyse the cells, and samples were incubated overnight. The absorbance at 590 nm was determined for each sample using a Molecular Devices microplate reader. Absorbance values for each set of wells is compared to assess viral control infection, uninfected control cell response as well as test compound by cytotoxicity and antiviral efficacy.
(§4) The calculated EC^50 (effective concentration 50%, i.e., the concentration at which the inhibitor compound reduces cytopathicity by 50%) and TD^50 (toxic dose 50%, i.e., the concentration at which the inhibitor compound reduces cellular viability by 50%) values for these compounds are also shown in Table 1.

HIV-1 = test: CEM cell assay: HIV inhibition in acutely infected cells (MTT colorimetric); type: cell-based; settings: HIV-1 infected CEM cells, 7 days, concentration reducing cytopathicity by 50%, read-out: Antiviral Activity in Cell Culture (EC50)
Method: as §1, §2, §3, §4

CEM cells = test: CEM cell assay: intrinsic toxicity of test compound in uninfected cells (MTT); type: cell-based
Method: as §1, §2, §3, §4

[2] = Human immunodeficiency virus 1, CCRF-CEM, 168 h
[3] = substrate 80 μM, HIV protease 12.3 nanomolar, pH 6.4, ambient temperature, read-out: Enzyme Inhibition (IC50)

| Molecule | inhibition at 10 µM (HIV protease) [%] | IC50 at 7 days [1] [nM] | EC50 (HIV-1; [2]) [nM] | IC50 (HIV protease; [3]) [nM] | further results |
| --- | --- | --- | --- | --- | --- |
| CC(C)(C)NC(=O)[C@@H]1C[C@@H]2CCCC[C@@H]2CN1C[C@@H](O)[C@H](Cc1ccccc1)NC(=O)C[C@H](NC(=O)c1ccc2ccccc2n1)C(N)=O (relative stereo) [Example 10, butanediamide, N^4-[3-[3-[[(1,1-dimethylethyl)-amino]carbonyl]octahydro-2(1H)-isoquinolinyl]-2-hydroxy-1-(phenyl-methyl)propyl]-2-[(2-quinolinylcarbonyl)amino]-, [3S[2[1R*(R*),2S*], 3α,4aβ,8aβ]]] | 3 to 100 | 5000 | 37 | – | IC50 (HIV protease): 9 nM |
| COc1ccc(COC(=O)NC[C@@H](C)C(=O)N[C@@H](Cc2ccccc2)[C@H](O)CN2C[C@H]3CCCC[C@H]3C[C@H]2C(=O)NC(C)(C)C)cc1 (relative stereo) [Example 4, carbamic acid, [3-[[3-[3-[[(1,1-dimethylethyl)-amino]carbonyl]octahydro-2(1H)-isoquinolinyl]-2-hydroxy-1-(phenyl-methyl)propyl]amino]-2-methyl-3-oxopropyl]-,(4-methoxyphenyl)methylester,[3S-[2[1R*(S*),2S*], 3α,4aβ,8aβ]]] | 3 to 100 | – | – | – | – |
| C[C@@H](C(=O)N[C@@H](Cc1ccccc1)[C@H](O)CN1C[C@H]2CCCC[C@H]2C[C@H]1C(=O)NC(C)(C)C)C(C)(C)C(N)=O [Example 12, Butanamide, 4-[[3-[3-[[(1,1-dimethylethyl)-amino]carbonyl]octahydro-2 (1H)-isoquinolinyl]-2-hydroxy-1-(phenylmethyl)propyl]amino]-2,2,3-trimethyl-4-oxo-, [3S-[2[1R*(S*),2S*], 3α, 4aβ, 8 aβ]]] | 3 to 100 | – | – | – | – |
| C[C@@H](C(=O)N[C@@H](Cc1ccccc1)[C@H](O)CN1C[C@H]2CCCC[C@H]2C[C@H]1C(=O)NC(C)(C)C)C(C)(C)C(=O)O (relative stereo) [Example 12C, butanoic acid, 4-[[3-[3-[[(1,1-dimethylethyl)amino]carbonyl]octahydro-2(1H)-isoquinolinyl]-2-hydroxy-1-(phenylmethyl)propyl]amino]-2,2,3-trimethyl-4-oxo-, [3S-[2[1R*(S*),2S*], 3α,4aβ, 8aβ]]-] | – | 50000 | 184 | 23 | – |
| COc1ccc(COC(=O)NCC(C)C(=O)NC(Cc2ccccc2)C(O)CN2CC3CCCCC3CC2C(=O)NC(C)(C)C)cc1 (stereo not drawn) [Example 4, carbamic acid, [3-[[3-[3-[[(1,1-dimethylethyl)-amino]carbonyl]octahydro-2(1H)-isoquinolinyl]-2-hydroxy-1-(phenyl-methyl)propyl]amino]-2-methyl-3-oxopropyl]-,(4-methoxyphenyl)methylester,[3S-[2[1R*(S*),2S*], 3α,4aβ,8aβ]]] | – | – | – | 7 | IC50 (CEM cells): 58000 nM; EC50 (HIV-1): 42 nM |
| C[C@H](CS(C)(=O)=O)C(=O)N[C@@H](Cc1ccccc1)[C@H](O)CN1C[C@H]2CCCC[C@H]2C[C@H]1C(=O)NC(C)(C)C (relative stereo) [Example 6, 3-Isoquinolinecarboxamide, N-(1,1-dimethylethyl)decahydro-2-[2-hydroxy-3-[[2-methyl-3-(methylsulfonyl)-1-oxopropyl]amino]-4-phenylbutyl]-, [3S-[2[2S*,3R*(R*)], 3α,4aβ,8aβ]]] | 3 to 100 | – | – | – | – |
| C[C@@H](C(=O)N[C@@H](Cc1ccccc1)[C@H](O)CN1C[C@H]2CCCC[C@H]2C[C@H]1C(=O)NC(C)(C)C)C(C)(C)C(=O)O [Example 12C, butanoic acid, 4-[[3-[3-[[(1,1-dimethylethyl)amino]carbonyl]octahydro-2(1H)-isoquinolinyl]-2-hydroxy-1-(phenylmethyl)propyl]amino]-2,2,3-trimethyl-4-oxo-, [3S-[2[1R*(S*),2S*], 3α,4aβ, 8aβ]]-] | 3 to 100 | – | – | – | – |
| 3-Isoquinolinecarboxamide, N-(1,1-dimethylethyl)decahydro-2-[2-hydroxy-3-[[2-methyl-3-(methylsulfonyl)-1-oxopropyl]amino]-4-phenylbutyl]-, [3S-[2[2S*,3R*(R*)], 3α,4aβ,8aβ]] [Example 6] | – | – | – | 2 | IC50 (CEM cells; CEM cells without virus, 7 days, concentration reducing cellular viability by 50% (TD50), read-out: Cell Toxicity (IC50)): 2000 nM; EC50 (HIV-1): 52 nM |
| C[C@@H](C(=O)N[C@@H](Cc1ccccc1)[C@H](O)CN1C[C@H]2CCCC[C@H]2C[C@H]1C(=O)NC(C)(C)C)C(C)(C)C(N)=O (relative stereo) [Example 12, Butanamide, 4-[[3-[3-[[(1,1-dimethylethyl)-amino]carbonyl]octahydro-2 (1H)-isoquinolinyl]-2-hydroxy-1-(phenylmethyl)propyl]amino]-2,2,3-trimethyl-4-oxo-, [3S-[2[1R*(S*),2S*], 3α, 4aβ, 8 aβ]]] | – | 59000 | 98 | 9 | – |
